In brackets after ≈: the same amount, converted by molar mass. Like-named read-outs stand apart in the source and are kept apart here. *1 amine or outer side, *2 acyl side, *3 side chain or, on linkers, in order; H or OH if unused. Where a SMILES comes first, the peptide text is derived from it. Bridges are numbered along the chain shown (N, C = ends). [ ]: non-standard residue; d: D form. ξ: configuration not given here. Phe(3R-OH) = O=C([C@@H](N[*:1])[C@H](O[*:3])c1ccccc1)[*:2]; Phe(βR-NH) = O=C([C@@H](N[*:1])[C@H](N[*:3])c1ccccc1)[*:2]; Asn(3S-OH) = NC(=O)[C@@H](O)[C@H](N)C(=O)O; Leu(3R-OH) = CC(C)[C@@H](O)[C@H](N)C(=O)O; dAla(TMS) = C[Si](C)(C)C[C@@H](N)C(=O)O; d(tBuAla) = CC(C)(C)C[C@@H](N)C(=O)O; tBuAla = CC(C)(C)C[C@H](N)C(=O)O; 3Pal = N[C@@H](Cc1cccnc1)C(=O)O; aThr = C[C@H](O)[C@H](N)C(=O)O; ξIle = CC[C@H](C)C(N)C(=O)O; Nle = CCCC[C@H](N)C(=O)O; ξS = NC(CO)C(=O)O
Columns and labels:
[1] = tested on: Enterococcus faecalis 27159; assay type: cell-based
Method: (§1) Determination of the Minimum Inhibitory Concentration (MIC):
(§2) The MIC is determined in the liquid dilution test in accordance with the NCCLS guidelines. Overnight cultures of Staphylococcus aureus 133, Enterococcus faecalis 27159, E. faecium 4147 and Streptococcus pneumoniae G9a are incubated with the described test substances in a 1:2 dilution series. The MIC determination is carried out with a cell count of 10^5 microbes per ml in Isosensitest medium (Difco, Irvine/USA), with the exception of S. pneumoniae which is tested in BHI broth (Difco, Irvine/USA) with 10% bovine serum with a cell count of 10^6 microbes per ml. The cultures are incubated at 37° C. for 18-24 hours, S. pneumoniae in the presence of 10% CO2.
(§3) The MIC is defined as the lowest concentration of each substance at which no visible bacterial growth occurs any longer. The MIC values are reported in μg/ml.

[2] = tested on: Staphylococcus aureus 133; assay type: cell-based
Method: as §1, §2, §3

[3] = tested on: Streptococcus pneumoniae G9a; assay type: cell-based
Method: as §1, §2, §3

[4] = Chemical stability in alkaline aqueous solution (buffer pH 7.8, HPLC); assay type: physicochemical; settings: aqueous neutral to basic medium (pH>7)
Method: Determination of the Chemical Stability in Stability Alkaline Aqueous Solution:
0.3 mg of the test substance are dissolved in a mixture of 0.25 ml of acetonitrile, 0.25 ml of DMSO and 0.5 ml of buffer of pH 7.8 (consisting of 111 mg (1 mmol) of calcium chloride, 7.91 g (100 mmol) of ammonium bicarbonate, 100 ml of acetonitrile ad 1000 ml) and left to stand at room temperature. A 5 μl aliquot is taken from the solution once an hour and analyzed by HPLC (method 57). The concentration of the test compound at time 0 h, indicated by the UV absorption (1E), is set equal to 100%, and the decrease over time is observed. At the same time, the increase in the ring-opened degradation product is observed.

[5] = amide bond; 28-membered ring; HATU/NMM; DMF; 0.0 °C
[6] = Isosensitest medium, 10^5 microbes per ml, 37° C., 18-24 hours

MIC E. faecalis ICB 27159 [1]; 27159 [µg/mL]	MIC S. aureus 133 [2]; 133 [µg/mL]	MIC S. pneumoniae G9a ([3]; G9a) [µg/mL]	Compound	MIC E. faecalis ICB 27159 [1, 6] [µg/mL]	MIC S. aureus 133 [2, 6] [µg/mL]	MIC S. pneumoniae G9a ([3]; BHI broth with 10% bovine serum, 10^6 microbes per ml, 37° C., 18-24 hours, 10% CO2) [µg/mL]	hydrolysis (opening of the lactone) in aqueous medium [4]	ring closure, crude yield [5] [%]
1 (≈ 0.802 µM)	0.5 (≈ 0.401 µM)	0.25 (≈ 0.201 µM)	CC[C@H](C)[C@@H]1NC(=O)[C@@H](CCCNC(=N)N)NC(=O)[C@H](CC(C)C)NC(=O)[C@H]([C@H](O)C(C)C)NC(=O)[C@@H](NC(=O)[C@H](CC(C)(C)C)NC(=O)[C@H](N)CC(C)(C)C)[C@@H](c2ccccc2)NC(=O)C(CO)NC(=O)[C@H](CO)NC(=O)CNC(=O)[C@H](CO)NC1=O (stereo partly drawn) [Example 23, [3-tert-Butyl-D-alanyl]-[3-tert-butyl-L-alanyl]-[(3R)-3-amino-L-phenylalanyl]-[(3R)-3-hydroxy-L-leucyl]-L-leucyl-D-arginyl-L-isoleucyl-L-seryl-glycyl-L-seryl-L-serine C^1.11-N^3.3-lactam bistrifluoroacetate] (H-[d(tBuAla)][tBuAla][Phe(βR-NH)][Leu(3R-OH)]L[dR]ISGS[ξS]; lactam 3-C)					
1 (≈ 0.793 µM)	0.25 (≈ 0.198 µM)	0.5 (≈ 0.397 µM)	CC[C@H](C)C1NC(=O)[C@H]([C@H](O)C(C)C)NC(=O)[C@@H](NC(=O)[C@H](CC(C)(C)C)NC(=O)[C@H](N)CC(C)(C)C)[C@@H](c2ccccc2)NC(=O)C(CO)NC(=O)[C@H](CO)NC(=O)CNC(=O)[C@H]([C@H](C)O)NC(=O)[C@H]([C@@H](C)CC)NC(=O)[C@@H](CCCNC(=N)N)NC1=O (stereo partly drawn) [Example 35, [3-tert-Butyl-D-alanyl]-[3-tert-butyl-L-alanyl]-[(3R)-3-amino-L-phenylalanyl]-[(3R)-3-hydroxy-L-leucyl]-L-isoleucyl-D-arginyl-L-isoleucyl-L-allothreonyl-glycyl-L-seryl-L-serine C^1.11-N^3.3-lactam bistrifluoroacetate] (H-[d(tBuAla)][tBuAla][Phe(βR-NH)][Leu(3R-OH)][ξIle][dR]I[aThr]GS[ξS]; lactam 3-C)					
0.5 (≈ 0.383 µM)	0.25 (≈ 0.192 µM)	0.125 (≈ 0.0958 µM)	CC[C@H](C)[C@@H]1NC(=O)[C@@H](CCCNC(=N)N)NC(=O)[C@H](CC(C)C)NC(=O)[C@H]([C@H](O)C(C)C)NC(=O)[C@@H](NC(=O)[C@H](CC(C)(C)C)NC(=O)[C@H](N)CC(C)(C)C)[C@@H](c2cccnc2)NC(=O)C(CO)NC(=O)C([C@H](O)C(N)=O)NC(=O)CNC(=O)[C@H]([C@H](C)O)NC1=O (stereo partly drawn) [Example 44, [3-tert-Butyl-D-alanyl]-[3-tert-butyl-L-alanyl]-[(3R)-3-amino-3-(pyridin-3-yl)-L-alanyl]-[(3R)-3-hydroxy-L-leucyl]-L-leucyl-D-arginyl-L-isoleucyl-L-allothreonyl-glycyl-[(3S)-3-hydroxy-L-asparaginyl]-L-serine C^1.11-N^3.3-lactam tristrifluoroacetate]					
0.5 (≈ 0.392 µM)	0.5 (≈ 0.392 µM)	0.063 (≈ 0.0494 µM)	CC[C@H](C)[C@@H]1NC(=O)[C@@H](CCCNC(=N)N)NC(=O)[C@H](CC(C)C)NC(=O)[C@H]([C@H](O)C(C)C)NC(=O)[C@@H](NC(=O)[C@H](CC(C)C)NC(=O)[C@H](N)CC(C)C)[C@@H](c2ccccc2)OC(=O)[C@H](CO)NC(=O)[C@H]([C@H](O)C(N)=O)NC(=O)CNC(=O)[C@H]([C@H](C)O)NC1=O [Lysobactin, lysobactin] (H-[dL]L[Phe(3R-OH)][Leu(3R-OH)]L[dR]I[aThr]G[Asn(3S-OH)]S; ester 3-C (inferred); N-terminus assumed)				hydrolyzed in an aqueous neutral to basic medium (pH>7) within days	

The remaining lines, values behind:

Compound	MIC E. faecalis ICB 27159 [1]; 27159 [µg/mL]	MIC S. aureus 133 [2]; 133 [µg/mL]	MIC S. pneumoniae G9a ([3]; G9a) [µg/mL]	MIC E. faecalis ICB 27159 [1, 6] [µg/mL]	MIC S. aureus 133 [2, 6] [µg/mL]	MIC S. pneumoniae G9a ([3]; BHI broth with 10% bovine serum, 10^6 microbes per ml, 37° C., 18-24 hours, 10% CO2) [µg/mL]	hydrolysis (opening of the lactone) in aqueous medium [4]	ring closure, crude yield [5] [%]
CCCC[C@@H]1NC(=O)[C@H]([C@H](O)C(C)C)NC(=O)[C@@H](NC(=O)[C@H](Cc2cccnc2)NC(=O)[C@H](N)C[Si](C)(C)C)[C@@H](c2ccccc2)NC(=O)C(CO)NC(=O)[C@H](C)NC(=O)CNC(=O)[C@H]([C@H](C)O)NC(=O)[C@H]([C@@H](C)CC)NC(=O)[C@@H](CCCNC(=N)N)NC1=O (stereo partly drawn) [Example 41, [3-Trimethylsilyl-D-alanyl]-[3-(3-pyridyl)-L-alanyl]-[(3R)-3-amino-L-phenylalanyl]-[(3R)-3-hydroxy-L-leucyl]-L-norleucyl-D-arginyl-L-isoleucyl-L-allothreonyl-glycyl-L-alanyl-L-serine C^1.11-N^3.3-lactam tristrifluoroacetate] (H-[dAla(TMS)][3Pal][Phe(βR-NH)][Leu(3R-OH)][Nle][dR]I[aThr]GA[ξS]; lactam 3-C)				2 (≈ 1.56 µM)	0.25 (≈ 0.195 µM)	0.25 (≈ 0.195 µM)		
[(3R)-N^2-(Benzyloxycarbonyl)-3-amino-L-phenylalanyl]-[(3R)-3-hydroxy-L-leucyl]-L-leucyl-D-arginyl-L-isoleucyl-L-allothreonyl-glycyl-L-allothreonyl-L-aserinate C^1.9-N^3.1-lactam trifluoroacetate								86
